Measured values taken from a compilation of properties of binary mixtures (doi:10.1016/j.fluid.2017.10.015).
Several values for one entry are separate records, joined by “and”; a condition that tells them apart may be missing. Equal values may be shown once.

Assay: xn = mol fraction of the nth substance listed
Details: 100 kPa

electrical conductivity (298.15 K, x2 = 0)	electrical conductivity (308.15 K, x2 = 0)	electrical conductivity (318.15 K, x2 = 0)	electrical conductivity (328.15 K, x2 = 0)	electrical conductivity (298.15 K, x1 = 0.0001) [S/m]	electrical conductivity (308.15 K, x1 = 0.0001) [S/m]	electrical conductivity (318.15 K, x1 = 0.0001)	electrical conductivity (328.15 K, x1 = 0.0001)	Compound
0.0089 S/m and 0.0093 S/m and 0.0105 S/m	0.0116 S/m and 0.0126 S/m and 0.0139 S/m	0.0153 S/m and 0.0171 S/m	0.0172 S/m and 0.0186 S/m and 0.0212 S/m	–	–	–	–	O + CCCCCCCCCCCC[N+]1(C)CCCC1.O=C([O-])c1ccccc1O
–	–	–	–	0.0115	0.0161	0.0185 S/m and 0.0235 S/m	0.0231 S/m and 0.0293 S/m	CCCCCCCCCCCC[N+]1(C)CCCC1.O=C([O-])c1ccccc1O + O
–	–	–	–	–	–	–	0.0271 S/m	CCCCCCCCCCCC[N+]1(C)CCCCC1.O=C([O-])c1ccccc1O + O
